Reference: PubChem BioAssay (NCI)
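Five compound concentrations were applied to cells in 96-well plates for 48 hours; endpoints were derived by simple linear interpolation of the resulting dose-response curve. TGI is the concentration that stops growth completely.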

Legend:
Experiment in all cases: inhibition of tumour cell growth, NCI panel, 48 h
SNB-75 CNS = system: SNB-75 CNS
DMS 273 small cell lung = system: DMS 273 small cell lung
RXF 393 renal = system: RXF 393 renal
HCT-15 colon = system: HCT-15 colon
LOX IMVI melanoma = system: LOX IMVI melanoma
SK-OV-3 ovarian = system: SK-OV-3 ovarian
UACC-62 melanoma = system: UACC-62 melanoma
RPMI-8226 leukemia = system: RPMI-8226 leukemia
SK-MEL-28 melanoma = system: SK-MEL-28 melanoma
U251 CNS = system: U251 CNS
SF-268 CNS = system: SF-268 CNS
OVCAR-3 ovarian = system: OVCAR-3 ovarian
A549 NSCLC = system: A549 NSCLC
EKVX NSCLC = system: EKVX NSCLC
MALME-3M melanoma = system: MALME-3M melanoma
OVCAR-8 ovarian = system: OVCAR-8 ovarian
KM20L2 colon = system: KM20L2 colon
DLD-1 colon = system: DLD-1 colon
ACHN renal = system: ACHN renal
RXF-631 renal = system: RXF-631 renal
SF-539 CNS = system: SF-539 CNS
M14 melanoma = system: M14 melanoma
LXFL 529 NSCLC = system: LXFL 529 NSCLC
DMS 114 small cell lung = system: DMS 114 small cell lung
OVCAR-4 ovarian = system: OVCAR-4 ovarian
HCC-2998 colon = system: HCC-2998 colon
OVCAR-5 ovarian = system: OVCAR-5 ovarian
MOLT-4 leukemia = system: MOLT-4 leukemia
IGROV1 ovarian = system: IGROV1 ovarian
SK-MEL-5 melanoma = system: SK-MEL-5 melanoma
TK-10 renal = system: TK-10 renal
CAKI-1 renal = system: CAKI-1 renal
UACC-257 melanoma = system: UACC-257 melanoma
NCI-H522 lung = system: NCI-H522 lung
SR leukemia = system: SR leukemia
786-0 renal = system: 786-0 renal
M19-MEL melanoma = system: M19-MEL melanoma
HOP-62 NSCLC = system: HOP-62 NSCLC
NCI-H226 lung = system: NCI-H226 lung
CCRF-CEM leukemia = system: CCRF-CEM leukemia
UO-31 renal = system: UO-31 renal
HT29 colon = system: HT29 colon
HL-60(TB) leukemia = system: HL-60(TB) leukemia
NCI-H460 lung = system: NCI-H460 lung
SN12C renal = system: SN12C renal
SW-620 colon = system: SW-620 colon
SNB-78 CNS = system: SNB-78 CNS
KM12 colon = system: KM12 colon
HCT-116 colon = system: HCT-116 colon
COLO 205 colon = system: COLO 205 colon
HOP-18 NSCLC = system: HOP-18 NSCLC
A498 renal = system: A498 renal
HOP-92 NSCLC = system: HOP-92 NSCLC
SNB-19 CNS = system: SNB-19 CNS
SF-295 CNS = system: SF-295 CNS
XF 498 CNS = system: XF 498 CNS
SK-MEL-2 melanoma = system: SK-MEL-2 melanoma
K-562 leukemia = system: K-562 leukemia

Measured: TGI

CC1=C2CC[C@@]3(C)C(=CCC3O)C2(C)CCC1=O (some centres not stated)
not listed: XF 498 CNS | SK-MEL-2 melanoma | K-562 leukemia
> 100 µM: all other assays above

COC(=O)c1cc(O)ccc1O
not listed: KM20L2 colon | DLD-1 colon | SR leukemia | HCT-116 colon | HOP-18 NSCLC | A498 renal
> 100 µM: all other assays above
